For one assay, the target named is Glutamate NMDA receptor (Rattus norvegicus) (UniProt P35439+Q00959+Q00960+Q00961+Q62645+Q8VHN2+Q9R1M7). Briefly: Depolarizing activity relative to that of L-Glutamate (L-Glu=1) tested against NMDA type receptor in the newborn rat spinal motoneurone. It is filed as protein-complex assay.
For `O=C(O)[C@H]1CCCN[C@@H]1C(=O)O` (racemic), the Relative Potency Ratio came out at 20.

`O=C(O)[C@H]1NCCC[C@H]1C(=O)O`: the Relative Potency Ratio was 10.

Regarding `O=C(O)[C@H]1NCC[C@H]1C(=O)O`, the Relative Potency Ratio is 0.1.

Take `CN[C@H](CC(=O)O)C(=O)O`: the Relative Potency Ratio was 50.

In the case of `O=C(O)[C@H]1CCN[C@H]1C(=O)O`, the Relative Potency Ratio worked out at 3.

The next assay deals with Glutamate receptors; NMDA/AMPA (Rattus norvegicus) (UniProt P35439+Q00959+Q00960+Q00961+Q62645+Q8VHN2+Q9R1M7+P19491+P19492+P19493+P19490). Briefly: Depolarizing activity relative to that of L-Glutamate (L-Glu=1) tested against mixed type(NMDA & AMPA) receptor in the newborn rat spinal motoneurone. Format: protein-complex assay.
Turning to `O=C(O)[C@@H]1CCN[C@H]1C(=O)O`, the Relative Potency Ratio stood at 5.
